{"source": "patent US6703213B2", "about": "“Substrate analogs for MurG, methods of making same and assays using same” (The Trustees of Princeton University, priority 1998, dated 2004)", "target": "T1, wild type E. coli MurG (Escherichia coli, UniProt P17443)", "T1 construct": "made in house; host or cells: E. coli BL21(DE3)pLysS, pET3a vector", "T1 sequence (P17443 whole entry)": "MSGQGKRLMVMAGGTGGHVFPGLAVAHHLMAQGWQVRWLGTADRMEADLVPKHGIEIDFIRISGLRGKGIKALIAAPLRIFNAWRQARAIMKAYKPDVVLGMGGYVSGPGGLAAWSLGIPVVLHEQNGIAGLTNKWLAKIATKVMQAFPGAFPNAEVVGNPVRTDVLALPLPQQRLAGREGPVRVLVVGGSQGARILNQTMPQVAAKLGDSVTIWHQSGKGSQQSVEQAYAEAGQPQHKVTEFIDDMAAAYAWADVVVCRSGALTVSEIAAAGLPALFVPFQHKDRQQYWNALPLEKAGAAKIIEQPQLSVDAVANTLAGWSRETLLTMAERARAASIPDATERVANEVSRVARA", "assay": "Initial rate assays with purified, soluble enzyme", "format": "biochemical", "settings": "rapid equilibrium sequential mechanism assumed; 0.08 μM purified MurG; UDP-GlcNAc as varied substrate", "experimental": "The following solutions are prepared prior to the assays: 1) 177.3 μM [^14C]-UDP-GlcNAc in H2O (0.05 mCi/mL); 2) 1.5 mM UDP-GlcNAc in H2O; 3) biotinylated Lipid I analog (1b) at 0.5 μg/μL; 4) 10×reaction buffer containing 50 mM HEPES (pH 7.9) and 5 mM MgCl2. The enzyme stock is prepared by diluting the purified enzyme with TBSE to a final concentration of 0.04 μg/μL in a 0.5 mL tube and storing at 4° C. for two days prior to running the assays.\nThirty reactions are prepared by individually mixing 2 μL of 10×reaction buffer with an appropriate amount of biotinylated Lipid I analog (1b), radioactive UDP-GlcNAc, nonradioactive UDP-GlcNAc, and H2O to a final volume of 18 μl. The final concentration for the Lipid I analog (1b) are 7 μM, 10 μM, 15 μM, 30 μM, 100 μM, and for UDP-GlcNAc 11 μM, 15 μM, 20 μM, 40 μM, 100 μM, 200 μM. Reactions are initiated by adding 2 μL of the enzyme stock and are run for 4 minutes at 24° C. Reactions are stopped by adding 10 μl of 1% (w/v) SDS.\nDeionized H2O is added to each tube to a final volume of approximately 250 μL and the suspension is transferred to a […] 96-well filter plate fitted to a vacuum-line fitted MultiScreen Assay System (Millipore). The resin is washed 15 times with 0.2 mL deionized H2O. […] Samples are counted immediately on a Beckman LS5000 scintillation counter."}
{"smiles": "CC(=O)N[C@H]1[C@@H](OP(=O)(O)OP(=O)(O)OC[C@H]2O[C@@H](n3ccc(=O)[nH]c3=O)[C@H](O)[C@@H]2O)O[C@H](CO)[C@@H](O)[C@@H]1O", "note": "[UDP-GLCNAC, UDP-N-acetylglucosamine]", "values": [{"measurement": "KUDP-GLCNAC", "value": 110, "unit": "µM"}]}
